Data as given in patent publication US20080139458A1, “Methods of Treatment For Injured or Diseased Joints” (priority 2004, published 2008).

Assays:
[1] = tested on: bovine synovial fluid (BSF); assay: In vitro friction assay of protease-treated bovine synovial fluid; assay type: biochemical; conditions: enzymes 0.5 U/mL, BSF = no enzyme, latex:glass bearing
Procedure: (§1) Human lubricin was purified from pooled SF aspirates of patients undergoing total knee replacement as described previously (Jay et al., Gluconj. J. 18:807-815, 2001). BSF was aspirated percutaneously from the lateral aspect of radiocarpal joints of freshly slaughtered cattle with sterile 18 gauge needles after cleansing the skin with alcohol swabs. The cattle were 1 year old and of both sexes (PelFreeze Corp., Little Rock, Ark.). The BSF was centrifuged at 20,000 g at 4° C. to remove cell debris and the BSF was stored at −20° C. Aliquots of purified human lubricin (1 mL, 250 μg/1 mL), and BSF (1 mL) were subjected to protease treatments with CB, NE, α-chymotrypsin, or trypsin. These enzymes were utilized as follows: 1) 0.5 U/mL of CB (Sigma-Aldrich, Saint Louis, Mo., one unit liberates 1 nanomole of 7-amino-4-methylcoumarin from Z-Arg-Arg 7-amido-4-methylcoumarin per min at pH 6.0 at 40° C.) reconstituted in 0.25 M Na acetate buffer, pH 5.5; 2) 0.5 U/mL NE (Sigma-Aldrich, one unit is defined as the release of 1 mole of p-nitrophenol per sec at 37° C.) reconstituted in 100 mM Tris-HCl, 100 mM CaCl2, pH 8.8; 3) 0.5 U/mL of TPCK-treated trypsin (Sigma-Aldrich, one unit causes a change in A253 of 0.001 per min at pH 7.6 at 25° C. using BAEE as a substrate) reconstituted in 50 mM Tris HCl, 20 mM CaCl2, pH 8.0; and 4) 0.5 U/mL of α-chymotrypsin (Sigma-Aldrich, one unit hydrolyzes 1.0 μmole of BTEE per min at pH 7.8 at 25° C.) reconstituted in 80 mM Tris-HCl, 100 mM CaCl2, pH 7.8.
(§2) Aliquots of digested human lubricin and BSF (200 μL) were removed after 2, 4, 6, 12, and 24 hours and the reaction was stopped by adding E-64 (L-trans-epoxysuccinyl-leucyl-amido-(4-guanidino)-butane, Sigma-Aldrich) to a final concentration of 100 μM (CB) or phenylmethanesulfonyl fluoride (PMSF, Sigma-Aldrich) to a final concentration of 1 mM (NE).
(§3) The boundary lubricating abilities of protease-treated human lubricin and BSF were measured using a friction apparatus as reported by Davis et al., J. Biomech. Eng. 101:185-192, 1979. Lubricant (200 μL) was applied between a bearing of latex and a ring of polished glass with a contact area of 1.59 cm^2. The latex was oscillated, under a pressure of 0.35×10^6 N/m^2, against the polished glass with an entraining velocity of 0.37 mm/sec. The bearing system was axially loaded within a gimbals system free to rotate around two perpendicular horizontal axes. The friction apparatus recorded displacements of the gimbals system around the vertical loading axis through a linear displacement voltage transducer, where the output was directly proportional to the frictional torque (F). A bearing load of 70 newtons (N) was related to the coefficient of friction (μ) via Amonton's law, F=μN.
(§4) The μ of the lubricant was recorded at room temperature and was preceded by a baseline measurement of μ with normal saline (NS). Lubrication was manifested by a reduction in μ by the lubricant relative to that of NS. Negative Δμ (−Δμ) values indicate lubrication whereas positive Δμ (+Δμ) indicate friction. Addition of 200 μL of lubricant was followed by bringing the bearing surfaces close enough so that the solution wet both surfaces. After 5 min for equilibration, the latex-coated bearing was brought to rest on the glass as it was oscillating. Voltage measurements were recorded at 1, 3, and 5 min. After 5 min, the surfaces were separated for 2 min and then brought back together for three additional 5 min session. The 3 and 5 min μ values of the last two 5 min session were recorded and averaged, and data were later combined with another duplicate experiment providing 8 distinct measurements of μ.

excised murine joints = assay: Ex vivo friction coefficient of excised murine joints after intra-articular protease (modified Stanton pendulum); design: species or system murine (Svev129 mice); conditions: for Friction coefficient μ ± S.D.: n = 4; for average increase in μ: after vs before intra-articular injection of 0.05 U, 2 hours at room temperature
Procedure: Murine joint friction measurements were performed ex vivo in a modified Stanton pendulum configuration (Chamely, New Scientist 6:60, 1959) illustrated in FIG. 2. Excised murine joints, from 8 week old Svev129 mice, weighing approximately 20 grams (Taconic, Germantown, N.Y.), were stripped of supporting connective tissue and musculature, while the synovium was left undisturbed. The femur and tibia were severed mid-length and covered with connecting plexiglass tubing. The center of the joint served as the axis of rotation of a 1 Hz pendulum. The joints were loaded with 20 grams and allowed to oscillate. The pendulum was set in motion at an angle of 30° off the perpendicular axis. The pendulum motion was videotaped and post-hoc analysis was performed to establish baseline μ. The deceleration of the pendulum, a=dv/dt, was used to calculate μ. Velocity (v) was calculated from the equation: v=(2 gh)^1/2 where h is the height from where the pendulum reached apogee to the point of maximum velocity at a=0. The μ of murine joint was calculated to be equal a/g. Presently, this calculation neglects aerodynamic drag and assumes g equals 9.81 m/s^2. A 5 μL protease solution containing 0.05 U of CB, NE, α-chymotrypsin, or trypsin was delivered intra-articularly. The limbs were treated at room temperature for 2 hours and the limbs were subsequently allowed to oscillate to estimate μ following treatment with the protease.

purified human lubricin [2] = assay: In vitro friction assay of protease-treated purified human lubricin; assay type: biochemical; conditions: enzymes 0.5 U/mL, Lubricin = no enzyme, latex:glass bearing
Procedure: as §1, §2, §3, §4

purified human lubricin [3] = assay: Western blot of protease-treated purified human lubricin (PNA-peroxidase and pAb J108); assay type: biochemical
Procedure: as §1, with “7.8. […]” for “7.8.”
Probing was performed using pAb J108, which recognizes an epitope; […], encoded by exon 3 within the amino-terminus of human lubricin/SZP and present in all alternatively spliced isoforms (Jay et al., J. Orthop. Res. 19:677-687, 2001). […] Immunopositive bands were detected in a darkroom on BioMax film (Kodak, Rochester, N.Y.). […]

[4] = After intra-articular injection of 5 μl containing 0.05 U, 2 hour treatment at room temperature
[5] = Before intra-articular injection (baseline)

Molecule	Change in coefficient of friction Δμ ± S.D. ([1]; 0 hrs)	Change in coefficient of friction Δμ ± S.D. ([1]; 2 hrs)	Change in coefficient of friction Δμ ± S.D. ([1]; 4 hrs)	Change in coefficient of friction Δμ ± S.D. ([1]; 6 hrs)	Change in coefficient of friction Δμ ± S.D. ([1]; 12 hrs)	Change in coefficient of friction Δμ ± S.D. ([1]; 24 hrs)	Friction coefficient μ ± S.D. (excised murine joints; [4])	Friction coefficient μ ± S.D. (excised murine joints; [5])	average increase in μ (excised murine joints) [%]	Change in coefficient of friction Δμ ± S.D. (purified human lubricin [2]; 0 hrs)	Change in coefficient of friction Δμ ± S.D. (purified human lubricin [2]; 2 hrs)	Change in coefficient of friction Δμ ± S.D. (purified human lubricin [2]; 4 hrs)	Change in coefficient of friction Δμ ± S.D. (purified human lubricin [2]; 6 hrs)	Change in coefficient of friction Δμ ± S.D. (purified human lubricin [2]; 12 hrs)	Change in coefficient of friction Δμ ± S.D. (purified human lubricin [2]; 24 hrs)	Degradation of lubricin (band intensities) (purified human lubricin [3]; 0.5 U/mL, 2, 4, 6, 12, and 24 hours post-treatment)	pAb J108 immunoreactive bands (purified human lubricin [3]; following NE treatment for 2 hours at 37° C.)	PNA and J108 reactivity of lubricin (purified human lubricin [3]; after 2 hours of treatment (data not shown))
Neutrophil Elastase: protease (Sigma-Aldrich) used to treat lubricin, BSF and murine joints	−0.061 ± 0.005	−0.039 ± 0.001	0.007 ± 0.001	0.009 ± 0.001	0.010 ± 0.001	0.013 ± 0.002	0.0028 ± 0.0008	0.0022 ± 0.0005	27.3	−0.068 ± 0.005	−0.038 ± 0.005	−0.019 ± 0.004	0.004 ± 0.001	0.015 ± 0.003	0.054 ± 0.006	time-dependent degradation of lubricin	no pAb J108 immunoreactive bands were detected	–
Trypsin: TPCK-treated trypsin (Sigma-Aldrich) used to treat lubricin, BSF and murine joints (protein, UniProt P00760 24-246, looked up, TPCK-treated, TPCK-treated trypsin (Sigma-Aldrich) used to treat lubricin, BSF and murine joints) Serine protease 1: IVGGYTCGANTVPYQVSLNSGYHFCGGSLINSQWVVSAAHCYKSGIQVRLGEDNINVVEGNEQFISASKSIVHPSYNSNTLNNDIMLIKLKSAASLNSRVASISLPTSCASAGTQCLISGWGNTKSSGTSYPDVLKCLKAPILSDSSCKSAYPGQITSNMFCAGYLEGGKDSCQGDSGGPVVCSGKLQGIVSWGSGCAQKNKPGVYTKVCNYVSWIKQTIASN	−0.061 ± 0.005	−0.031 ± 0.005	−0.015 ± 0.002	0.005 ± 0.001	0.009 ± 0.003	0.012 ± 0.004	0.0034 ± 0.0003	0.0018 ± 0.0001	88.9	−0.068 ± 0.005	0.025 ± 0.006	0.032 ± 0.005	0.038 ± 0.001	0.046 ± 0.005	0.049 ± 0.005	–	–	complete loss of PNA and J108 reactivity
